Patent US10106588B2, “Nucleic acids encoding peptides for treating wounds, anti-angiogenic compounds and uses thereof” (Trustees of Tufts College, priority 2008, dated 2018)
Where no end group is shown, it is not given here.

Legend:
[1] = tested on: Normal Human Epithelial Keratinocyte (NHEK); experiment: in vitro response to injury: keratinocyte migration / relative wound closure; format: cell-based; conditions: for relative wound closure via NHEK migration: 0.5 nM of each peptide, compared to control (FIG. 4); for keratinocyte migration in response to injury in vitro: general statement, no concentration
Experimental: FIG. 4 is a graph illustrating a measure of relative wound closure via Normal Human Epithelial Keratinocyte (NHEK) migration after exposure to 0.5 nM of each of the peptides of SEQ ID NOs: 1, 2, and 3 (“UN1,” “UN2,” and “UN3” respectively).
(§1) Each of the three peptide sequences were then analyzed for activity via (1) in vitro angiogenesis assays where blood vessel formation in vitro was quantified; (2) in vitro response to injury analyses, including quantitative analysis, of migration in response to injury; and (3) in vitro quantitation of cell proliferation assays. The results of experiments performed are illustrated in FIGS. 1 to 4.
In addition, each of the three peptides of the invention were compared with regard to adult normal human epithelial keratinocyte migration.

[2] = tested on: Human Microvascular Endothelial Cells (HMVEC); experiment: in vitro angiogenesis assay: tubule formation from HMVEC in Matrigel; format: cell-based; conditions: for induction of angiogenesis in vitro: general statement, no concentration
Experimental: FIG. 1 is an illustration of a comparison 0.5 nM of the peptide of SEQ ID NO: 1 (“UN1”) to a serum control sample in the formation of tubules from Human Microvascular Endothelial Cells (HMVEC) in Matrigel™ after 3 hours.
FIG. 2 is a graph illustrating a measure of angiogenesis in terms of total process length in Human Microvascular Endothelial Cells (HMVEC) with 0.4 nM and 250 nM of the SEQ ID NO: 1 (“UN1”).
FIG. 3 is a graph illustrating a measure of angiogenesis in terms of total process length in Human Microvascular Endothelial Cells (HMVEC) with 0.4 nM and 250 nM of the peptide of SEQ ID NO: 3 (“UN3”).
as §1
The peptide (SEQ. ID NO: 1 (“UN1”)) was compared to each of VEGF 4 ng/ml and Serum Control in an in vitro angiogenesis analysis.
The peptide (SEQ ID NO: 3 (“UN3”)) was also compared to VEGF and Serum Control in in vitro angiogenesis analysis.

Sequence	relative wound closure via NHEK migration [1]	keratinocyte migration in response to injury in vitro [1]	formation of tubules (number and lengths of processes or tubules), in vitro angiogenesis ([2]; 0.5 nM peptide, HMVEC in Matrigel, after 3 hours, versus serum control (FIG. 1))	induction of angiogenesis in vitro [2]	tubule formation ([2]; in comparison to Serum Control and VEGF 4 ng/ml (FIGS. 1 and 2))	process length ([2]; in comparison to Serum Control and VEGF 4 ng/ml, 0.4 nM and 250 nM (FIG. 2))	process length ([2]; in comparison to VEGF, peptide at 250 nM (FIG. 3))	process length ([2]; in comparison with Serum Control, 0.4 nM and 250 nM (FIG. 3))
ELLESYIDR [UN1]	significantly better	promote keratinocyte migrations	significant induction of in vitro angiogenesis	induce angiogenesis in vitro	induced significant tubule formation	significant tubule formation and process length	–	–
ELLESYIDRPTATSEYQTFFNPR [UN3]	significantly better	promote keratinocyte migrations	–	induce angiogenesis in vitro	–	–	significant increase in process length	significant increase in process length
TATSEYQTFFNPR [UN2]	significantly better	–	–	–	–	–	–	–
